“And” between values parts separate entries of the source, which are not always exact repeats. Equal entries are not always repeated. Where two headings read alike, the source gives them in different places.
What was measured:
[1] = system: SUDHL10; assay: Induction of caspase-3/7 activity (Caspase-Glo 3/7), SUDHL10; type: cell-based; conditions: caspase-3/7 induction, SUDHL10 cells, 3 h treatment, median
Outline: (§1)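 DLBCL cells treated with compounds for 3 h at 37 °C, then caspase-3/7 activity read by Caspase-Glo 3/7 luminescence. Medium-only background subtracted; EC50 fitted with C0 fixed at 1 and top set to the reference compound's maximal induction.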

[2] = system: SUDHL5; assay: Induction of cytotoxicity (CellTiter-Glo, 5 h), SUDHL5
[3] = system: SUDHL10; assay: Anti-proliferative effect (CellTiter-Glo, 72 h), SUDHL10; type: cell-based; conditions: SUDHL10 cells, antiproliferation, 72 h incubation, median, read-out: Antiproli SUDHL10 [M] (median)
Outline: (§2)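 Cells were treated with compounds for 72 h at 37 °C in a humidified incubator, and viability was measured by CellTiter-Glo luminescence. A parallel day 0 plate, read the same way, gave the time zero baseline.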

[4] = system: SUDHL5; assay: Induction of caspase-3/7 activity (Caspase-Glo 3/7), SUDHL5; type: cell-based; conditions: caspase-3/7 induction, SUDHL5 cells, 3 h treatment, median
Outline: as §1

[5] = system: OPM2; assay: Anti-proliferative effect (CellTiter-Glo, 72 h), OPM2; type: cell-based; conditions: OPM2 cells, median, read-out: IC50 antiproliferation assay OPM2 [M] (median)
Outline: as §2

[6] = system: SUDHL5; assay: Anti-proliferative effect (CellTiter-Glo, 72 h), SUDHL5; type: cell-based; conditions: SUDHL5 cells, antiproliferation, 72 h incubation, median, read-out: Antiproli SUDHL5 [M] (median)
Outline: as §2

[7] = system: SUDHL10; assay: Induction of cytotoxicity (CellTiter-Glo, 5 h), SUDHL10
[8] = biological target: MCL-1 (Homo sapiens, UniProt Q07820); assay: Protein-protein interaction assay MCL-1/Noxa BH3 peptide (MCL-1 assay), TR-FRET; type: binding; conditions: MBP-MCL-1 / Noxa BH3-derived peptide, median
MCL-1, sequence (Q07820 whole entry): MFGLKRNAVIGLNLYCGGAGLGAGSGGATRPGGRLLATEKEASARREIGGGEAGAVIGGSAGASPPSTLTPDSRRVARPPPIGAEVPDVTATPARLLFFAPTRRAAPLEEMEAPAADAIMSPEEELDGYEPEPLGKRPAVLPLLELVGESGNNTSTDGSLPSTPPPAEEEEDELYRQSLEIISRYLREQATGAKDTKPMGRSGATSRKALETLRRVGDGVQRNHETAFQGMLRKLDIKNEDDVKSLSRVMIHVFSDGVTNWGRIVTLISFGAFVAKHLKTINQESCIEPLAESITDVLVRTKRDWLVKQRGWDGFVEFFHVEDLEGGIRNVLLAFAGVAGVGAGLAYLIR
Outline: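 TR-FRET, 665/622 nm emission ratio (excitation 330–350 nm), measured MCL-1/Noxa complex formation. 1 nM MBP-MCL-1, 50 mM Tris/HCl pH 7, 0.1% BGG, 2 mM DTT. Incubation 1 h at 22 °C, then overnight at 4 °C. IC50 by 4-parameter regression, normalized to DMSO (0%) and no-MCL-1 (100%) controls.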

[9] = system: A2780; assay: Anti-proliferative effect (CellTiter-Glo, 72 h), A2780; type: cell-based; conditions: A2780 cells, median, read-out: IC50 antiproliferation assay A2780 [M] (median)
Outline: as §2

[10] = Homo sapiens, SU-DHL-5, 5 h, read-out: Cytotox SUDHL5 [M] (median), SUDHL5 cells, cytotoxicity induction, CellTiter-Glo, 5 h incubation, median
[11] = Homo sapiens, SU-DHL10, 5 h, read-out: Cytotox SUDHL10 [M] (median), SUDHL10 cells, cytotoxicity induction, CellTiter-Glo, 5 h incubation, median
[12] = read-out: Cytotox SUDHL5 [M] (median), SUDHL5 cells, cytotoxicity induction, CellTiter-Glo, 5 h incubation, median
[13] = read-out: Cytotox SUDHL10 [M] (median), SUDHL10 cells, cytotoxicity induction, CellTiter-Glo, 5 h incubation, median

Row | EC50 ([1]; Homo sapiens, SU-DHL10, 3 h) [µM] | IC50 ([3]; Homo sapiens, SU-DHL10, 72 h) [M] | EC50 ([4]; Homo sapiens, SU-DHL-5, 3 h) [µM] | IC50 ([6]; Homo sapiens, SU-DHL-5, 72 h) [M] | IC50 [8] [µM] | IC50 ([9]; Homo sapiens, A2780, 72 h) [M] | EC50 [1] [µM] | IC50 [3] [M] | EC50 [4] [µM] | IC50 [6] [M] | IC50 [9] [M] | SMILES | IC50 [2, 10] [M] | IC50 ([5]; Homo sapiens, OPM-2, 72 h) [M] | IC50 [7, 11] [M] | IC50 [2, 12] | IC50 [5] [M] | IC50 [7, 13]
1 | 11.9 | 9.04e-06 | 6.83 | 3.68e-06 | 0.00713 | 1.82e-05 | – | – | – | – | – | CC(C)OCc1nn(C)c2c1-c1cccc3c(CCCOc4cccc5ccccc45)c(C(=O)O)n(c13)CCCCN(C)C2 (racemic) [Example 1-73, (rac)-1,14-dimethyl-7-[3-(naphthalen-1-yloxy)propyl]-3-[(propan-2-yloxy)methyl]-10,11,12,13,14,15-hexahydro-1H-pyrazolo[3′,4′:8,9][1,6]diazacycloundecino[10,11,1-hi]indole-8-carboxylic Acid] | 7e-06 | 1.17e-05 | 1.53e-05 | – | – | –
2 | 14.9 | 1.64e-05 | 10.9 | 7.08e-06 | 0.0202 | > 3.3e-05 | – | – | – | – | – | CN1CCCn2c(C(=O)O)c(CCCOc3cccc4ccccc34)c3cccc(c32)-c2c(CN3CCOCC3)nn(C)c2C1 (racemic) [Example 1-42, (rac)-7,9-dimethyl-11-(morpholin-4-ylmethyl)-1-[3-(naphthalen-1-yloxy)propyl]-4,5,6,7,8,9-hexahydropyrazolo[3′,4′:7,8][1,5]diazecino[9,10,1-hi]indole-2-carboxylic Acid] | 1.19e-05 | 3.29e-05 | > 3.3e-05 | – | – | –
3 | – | – | – | – | 0.00684 | – | 7.13 | > 3.3e-05 | 5.7 | > 3.3e-06 | > 3.3e-05 | Cn1nc(COc2ccc(S(C)(=O)=O)cc2)c2c1COCCCCn1c(C(=O)O)c(CCCOc3cccc4ccccc34)c3cccc-2c31 (single isomer, unassigned) [Example 1-56, (+)-1-methy-3-{[4-(methylsulfonyl)phenoxy]methyl}-7-[3-(naphthalen-1-yloxy)propyl]-1,10,11,12,13,15-hexahydropyrazolo[4′,3′:9,10][1,6]oxazacycloundecino[8,7,6-hi]indole-8-carboxylic Acid] | – | – | – | 5.72e-06 M | > 3.3e-05 | 2.95e-05 M
4 | 29.4 | 7.4e-06 | 19.9 | 1.2e-05 | 0.0988 | 1.21e-05 | – | – | – | – | – | COC1(c2ccc(OCc3nn(C)c4c3-c3cccc5c(CCCOc6cccc7ccccc67)c(C(=O)O)n(c35)CC=CCOC4)cc2)CCOCC1 (racemic) [Example 1-64, (rac)-(E/Z)-3-{[4-(4-methoxytetrahydro-2H-pyran-4-yl)phenoxy]methyl}-1-methyl-7-[3-(naphthalen-1-yloxy)propyl]-1,10,13,15-tetrahydropyrazolo[4′,3′:9,10][1,6]oxazacycloundecino[8,7,6-hi]indole-8-carboxylic Acid] | 2.65e-05 | 2.15e-05 | > 3.3e-05 | – | – | 3.12e-05 M and 2.47e-05 M
5 | – | – | – | – | 0.0184 | 2.02e-05 | > 33 | 2.02e-05 | > 33 | 2.68e-05 | – | CCOCc1nn(C)c2c1-c1cccc3c(CCCOc4cccc5ccccc45)c(C(=O)O)n(c13)CCCCOC2 (single isomer, unassigned; enantiomer 1) [Example 169, 3-(ethoxymethyl)-1-methyl-7-[3-(naphthalen-1-yloxy)propyl]-1,10,11,12,13,15-hexahydropyrazolo[4′3′:9,10][1,6]oxazacycloundecino[8,7,6-hi]indole-8-carboxylic Acid (Enantiomer 1)] | – | 2.04e-05 | 2.01e-05 | 1.74e-05 M and > 3.3e-05 M | – | > 3.3e-05 M
6 | – | – | – | – | 0.167 | 2.59e-05 | > 33 | 9.09e-06 | > 33 | 1.34e-05 | – | Cn1nc(COc2ccc(S(C)(=O)=O)cc2)c2c1COCCCCn1c(C(=O)O)c(CCCOc3cccc4ccccc34)c3cccc-2c31 (single isomer, unassigned) [Example 1-55, (−)-1-methyl-3-{[4-(methylsulfonyl)phenoxy]methyl}-7-[3-(naphthalen-1-yloxy)propyl]-1,10,11,12,13,15-hexahydropyrazolo[4′,3′:9,10][1,6]oxazacycloundecino[8,7,6-hi]indole-8-carboxylic Acid] | – | > 3.3e-05 | 1.73e-05 | > 3.3e-05 M | – | –
7 | – | – | – | – | 0.0162 | – | 7.5 | 7.2e-06 | 10.2 | 1.36e-05 | 2.48e-05 | Cn1nc(COc2ccc(S(C)(=O)=O)cc2)c2c1COCC=CCn1c(C(=O)O)c(CCCOc3cccc4ccccc34)c3cccc-2c31 (single isomer, unassigned) [Example 1-53, (E/Z)-1-methyl-3-{[4-(methylsulfonyl)phenoxy]methyl}-7-[3-(naphthalen-1-yloxy)propyl]-1,10,13,15-tetrahydropyrazolo[4′,3′:9,10][1,6]oxazacycloundecino[8,7,6-hi]indole-8-carboxylic Acid] | – | – | – | 6.49e-06 M | > 3.3e-05 | 7.89e-06 M
8 | 6.36 | 2.63e-06 | 3.25 | 3.21e-06 | 0.00171 | 1.97e-05 | – | – | – | – | – | Cc1ccc2c(CCCOc3cccc4ccccc34)c(C(=O)O)n3c2c1-c1c(nn(C)c1C)COCCCC3 (racemic) [Example 075, (rac)-2,3,4-trimethyl-7-[3-(naphthalen-1-yloxy)propyl]-2,10,11,12,13,15-hexahydropyrazolo[4′,3′:9,10][1,6]oxazacycloundecino[8,7,6-hi]indole-8-carboxylic Acid] | 3.66e-06 | 1.1e-05 | 8.23e-06 | – | – | –
9 | 9.64 | 7.88e-06 | 4.43 | 2.32e-06 | 0.00453 | > 3.3e-05 | – | – | – | – | – | Cc1nn(C)c2c1-c1cccc3c(CCCOc4cccc5cc(F)ccc45)c(C(=O)O)n(c13)CCCCOC2 (racemic) [Example 018, (rac)-7-{3-[(6-fluoronaphthalen-1-yl)oxy]propyl}-1,3-dimethyl-1,10,11,12,13,15-hexahydropyrazolo[4′,3′:9,10][1,6]oxazacycloundecino[8,7,6-hi]indole-8-carboxylic Acid] | 3.77e-06 | 9.67e-06 | 9.04e-06 | – | – | –
10 | – | – | – | – | 0.0938 | – | 15.1 | 6.64e-06 | 17.9 | 1.06e-05 | 1.16e-05 | CN1CCCn2c(C(=O)O)c(CCCOc3cccc4ccccc34)c3cccc(c32)-c2c(COc3ccc(C4CCOCC4)cc3)nn(C)c2C1 (single isomer, unassigned) [Example 1-59, (−)-7,9-dimethyl-1-[3-(naphthalen-1-yloxy)propyl]-11-{[4-(tetrahydro-2H-pyran-4-yl)phenoxy]methyl}-4,5,6,7,8,9-hexahydropyrazolo[3′,4′:7,8][1,5]diazecino[9,10,1-hi]indole-2-carboxylic Acid] | – | – | – | 1.24e-05 M | 1.26e-05 | 2.01e-05 M
11 | – | 2.19e-06 | – | – | 0.00285 | 1.38e-05 | 1.95 | – | 1.63 | 1.25e-06 | – | CN(C)S(=O)(=O)N1CCN(c2ccc(OCc3nn(C)c4c3-c3cccc5c(CCCOc6cccc7ccccc67)c(C(=O)O)n(c35)CCCCOC4)cc2)CC1 (single isomer, unassigned; enantiomer 2) [Example 1-20, 3-({4-[4-(dimethylsulfamoyl)piperazin-1-yl]phenoxy}methyl)-1-methyl-7-[3-(naphthalen-1-yloxy)propyl]-1,10,11,12,13,15-hexahydropyrazolo[4′,3′:9,10][1,6]oxazacycloundecino[8,7,6-hi]indole-8-carboxylic Acid (Enantiomer 2)] | – | 2.32e-06 | – | 2.11e-06 M | – | 3.06e-06 M
